Assay results: EP4089103A1, “CLPCP PROTEASE-BINDING CYCLIC HEPTAPEPTIDES” (priority 2021, dated 2022)
≈ marks a conversion by molar mass, not a printed value. Where “and” joins values, the source holds several entries; their conditions need not be identical. Equal entries are not always repeated. Where two headings read alike, the source gives them in different places. Starred links: 1 amine or outer side, 2 acyl side, 3 side chain; linkers in the order of their positions; H or OH if unused. Non-standard residues stand in square brackets, D forms with d. Residues, ends and D or L forms follow the SMILES beside them. *: point of attachment. Trp(1-(1,1-Me2-allyl)) = C=CC(C)(C)n1cc(C[C@H](N)C(=O)O)c2ccccc21; Phe(βR-OMe) = CO[C@H](c1ccccc1)[C@H](N)C(=O)O; X4 = C/C=C/[C@@H](C)[C@H](N[*:1])C(=O)[*:2]; X2 = CN([C@@H](CCCO)C(=O)[*:2])[*:1]; NMeE = CN[C@@H](CCC(=O)O)C(=O)O; NMeL = CN[C@@H](CC(C)C)C(=O)O; NMeK = CN[C@@H](CCCCN)C(=O)O; tBu = CC(C)(C)*; NHPr = CCCN*

Key:
[1] = from H-Val-MeLeu-Ile-Trp(Boc)-MeGlu(tBu)-Ala-Phe-OH; amide bond; 21-membered ring; T3P/DIEA; DCM; 0.75 mM; 25.0 °C
[2] = amide bond, 21-membered ring
mycobacterial cell = test: Minimal Inhibitory Concentration (MIC); assay type: cell-based
ClpC1NTD = target: T1, ClpC1NTD (Mycolicibacterium smegmatis, UniProt A0R574); test: Binding affinity by isothermal titration calorimetry (ITC); settings: ITC at 25 °C, 50 mM Tris pH 7.5, 100 mM NaCl, 2% DMSO, single binding site model
T1 construct: M. smegmatis clpC1 NTD (1-148) was cloned in pET21a; hexahistidine (C); made in house; host or cells: E. coli BL21 (DE3) or Rosetta
Method: Binding affinities were determined using isothermal titration calorimetry (ITC).
ITC experiments were carried out using MicroCal PEAQ-ITC (Malvern) at 25 °C, whilst stirring at 750 rpm in a buffer containing 50 mM Tris pH 7.5, 100 mM NaCl. Each titration consisted of 19 injections with intervals of 120 s (the first injection of 0.4 µL followed by 18 injections of 2 µL). DMSO concentration was matched between cell and syringe to 2%. The data were fitted to a single binding site model with a fitted offset subtraction in the MicroCal PEAQ-ITC Analysis Software. Each titration was repeated at least two times. Titrations were performed with ligand in the syringe and protein in the cell. A control titration of ligand into buffer was performed in order to account for the heat of dilution. Titrations involving compounds with poorer solubility of the compound in buffer were performed with ligand in the cell and protein in the syringe. The following table 2 provides the results of the determination. Table 2: results for dissociation constant (KD) and Minimal Inhibitory Concentration (MIC)

[3] = the molecule shown is the open-chain precursor, DIC/HOAt/Et3N, DCM, 0.75 mM, 25.0 °C
[4] = the molecule shown is the open-chain precursor

T1 sequence (A0R574 1-148): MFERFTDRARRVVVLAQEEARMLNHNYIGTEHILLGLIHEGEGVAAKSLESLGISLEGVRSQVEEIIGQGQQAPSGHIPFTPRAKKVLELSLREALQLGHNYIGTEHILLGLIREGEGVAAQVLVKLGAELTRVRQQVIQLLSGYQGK

Compound: CC[C@H](C)[C@@H]1NC(=O)[C@H](CC(C)C)N(C)C(=O)[C@H](C(C)C)NC(=O)[C@H](Cc2ccccc2)NC(=O)[C@H](C)NC(=O)[C@H](CCC(=O)OC(C)(C)C)N(C)C(=O)[C@H](Cc2cn(C(=O)OC(C)(C)C)c3ccccc23)NC1=O [H-Val-MeLeu-Ile-Trp(Boc)-MeGlu(tBu)-Ala-Phe-OH]
- ring closure, yield after HPLC [1]: 39%
- ring closure, crude yield ([2]; from H-Val-MeLeu-Ile-Trp(Boc)-MeGlu(tBu)-Ala-Phe-OH, T3P/DIEA, DCM, 0.75 mM, 25.0 °C): 52% and 54%

Compound: C=CC(C)(C)n1cc(C[C@@H]2NC(=O)[C@H]([C@H](C)/C=C/C)NC(=O)[C@H](CC(C)C)N(C)C(=O)[C@H](C(C)C)NC(=O)[C@H]([C@H](OC)c3ccccc3)NC(=O)[C@H](C)NC(=O)[C@H](CCCCN)N(C)C2=O)c2ccccc21 [CycloA_D17] (cyclo(A[Phe(βR-OMe)]V[NMeL][X4][Trp(1-(1,1-Me2-allyl))][NMeK]))
- MIC (mycobacterial cell): 20 µM (≈ 19.9 µg/mL)

Compound: H-Val-MeLeu-Ile-Trp(prenyl)-MeLys(Boc)-Ala-Phe(3R-MeO)-OH
- ring closure, crude yield [2, 3]: 65%

Compound: H-Glu(TOTA-PMX-methylester)-Phe(3R-MeO)-Val-MeLeu-Ile-Trp(Boc)-MeLys(Boc)-OH
- ring closure, crude yield [2, 4]: 77% and 58%

Compound: CC[C@H](C)[C@@H]1NC(=O)[C@H](CC(C)C)N(C)C(=O)[C@H](C(C)C)NC(=O)[C@H](Cc2ccccc2)NC(=O)[C@H](C)NC(=O)[C@H](CCCO[Si](C)(C)C(C)(C)C)N(C)C(=O)[C@H](Cc2cn(C(=O)OC(C)(C)C)c3ccccc23)NC1=O [H-Val-MeLeu-Ile-Trp(Boc)-MeHnv(TBDMS)-Ala-Phe-OH]
- ring closure, crude yield ([2]; from H-Val-MeLeu-Ile-Trp(Boc)-MeHnv(TBDMS)-Ala-Phe-OH, T3P/DIEA, DCM, 0.75 mM, 25.0 °C): 94%

Compound: CC[C@H](C)[C@@H]1NC(=O)[C@H](CC(C)C)N(C)C(=O)[C@H](C(C)C)NC(=O)[C@H](Cc2ccccc2)NC(=O)[C@H](C)NC(=O)[C@H](CCC(=O)OC)N(C)C(=O)[C@H](Cc2ccc(OC(C)(C)C)cc2)NC1=O [H-Val-MeLeu-Ile-Tyr(tBu)-MeGlu(Me)-Ala-Phe-OH]
- ring closure, crude yield ([2]; from H-Val-MeLeu-Ile-Tyr(tBu)-MeGlu(Me)-Ala-Phe-OH, T3P/DIEA, DCM, 0.75 mM, 25.0 °C): 72%

Compound: H-Val-MeLeu-Ile-Trp(Boc)-MeLys(Boc)-Glu(TOTA-Biotin)-Phe(3R-MeO)-OH
- ring closure, crude yield [2, 3]: 63%

Compound: H-Val-MeLeu-Ile-Trp(prenyl)-MeLys(Boc)-Ala-Phe-OH
- ring closure, crude yield [2, 3]: 78%

Compound: CC[C@H](C)[C@@H]1NC(=O)[C@H](CCC(=O)OC(C)(C)C)N(C)C(=O)[C@H](C(C)C)NC(=O)[C@H]([C@H](OC)c2ccccc2)NC(=O)[C@H](C)NC(=O)[C@H](CCCCNC(=O)OC(C)(C)C)N(C)C(=O)[C@H](Cc2cn(C(=O)OC(C)(C)C)c3ccccc23)NC1=O [H-Val-MeGlu(tBu)-Ile-Trp(Boc)-MeLys(Boc)-Ala-Phe(3R-MeO)-OH]
- ring closure, crude yield ([2]; from H-Val-MeGlu(tBu)-Ile-Trp(Boc)-MeLys(Boc)-Ala-Phe(3R-MeO)-OH, T3P/DIEA, DCM, 0.75 mM, 25.0 °C): 52%

Compound: H-Val-MeLeu-Ile-Trp(Boc)-MeLys(Boc)-Lys(Biotin)-Phe(3R-MeO)-OH
- ring closure, crude yield [2, 3]: 72%

Compound: H-Val-MeLeu-Ile-Trp(Boc)-MeLys(Boc)-Glu(TOTA-(+)JQ1)-Phe(3R-MeO)-OH
- ring closure, crude yield [2, 4]: 64%

Compound: C=CC(C)(C)n1cc(C[C@@H]2NC(=O)[C@H]([C@@H](C)CC)NC(=O)[C@H](CC(C)C)N(C)C(=O)[C@H](C(C)C)NC(=O)[C@H](Cc3ccccc3)NC(=O)[C@H](C)NC(=O)[C@H](CCCCN)N(C)C2=O)c2ccccc21 [CycloA_D10] (cyclo(AFV[NMeL]I[Trp(1-(1,1-Me2-allyl))][NMeK]))
- MIC (mycobacterial cell): 40 µM (≈ 38.2 µg/mL)

Compound: CC[C@H](C)[C@@H]1NC(=O)[C@H](CC(C)C)N(C)C(=O)[C@H](C(C)C)NC(=O)[C@H](Cc2ccccc2)NC(=O)[C@H](C)NC(=O)[C@H](CCCO)N(C)C(=O)[C@H](Cc2c[nH]c3ccccc23)NC1=O [CylcoA_D4] (cyclo(AFV[NMeL]IW[X2]))
- Kd (ClpC1NTD): 107 µM
- MIC (mycobacterial cell): > 30 µM

Compound: H-Val-MeLeu-dehydroisonorleucine-Trp(prenyl)-MeLys(Boc)-Ala-Phe(3R-MeO)-OH
- ring closure, crude yield [2, 3]: 81%

Compound: H-Glu(TOTA-TMP)-Phe(3R-MeO)-Val-MeLeu-Ile-Trp(Boc)-MeLys(Boc)-OH?
- ring closure, crude yield [2, 4]: 65%

Compound: CC[C@H](C)[C@@H]1NC(=O)[C@H](CC(C)C)N(C)C(=O)[C@H](C(C)C)NC(=O)[C@H](Cc2ccccc2)NC(=O)[C@H](C)NC(=O)[C@H](CCCO)N(C)C(=O)[C@H](Cc2ccc(OC(C)(C)C)cc2)NC1=O [CycloA_D5a] (cyclo(V[NMeL]IY(tBu)[X2]AF))
- Kd (ClpC1NTD): 128 µM
- MIC (mycobacterial cell): > 30 µM

Compound: H-Val-MeLeu-Ile-Trp(Boc)-MeLys(Boc)-Glu(TOTA-SLF')-Phe(3R-MeO)-OH
- ring closure, crude yield [2, 4]: 54%

Compound: CC[C@H](C)[C@@H]1NC(=O)[C@H](CCC(=O)O)N(C)C(=O)[C@H](C(C)C)NC(=O)[C@H]([C@H](OC)c2ccccc2)NC(=O)[C@H](C)NC(=O)[C@H](CCCCN)N(C)C(=O)[C@H](Cc2c[nH]c3ccccc23)NC1=O [CycloA_D13] (cyclo(A[Phe(βR-OMe)]V[NMeE]IW[NMeK]))
- MIC (mycobacterial cell): >200 µM

Compound: CCCNC(=O)CC[C@H]1C(=O)N[C@@H](C)C(=O)N[C@@H](Cc2ccccc2)C(=O)N[C@@H](C(C)C)C(=O)N(C)[C@@H](CC(C)C)C(=O)N[C@@H]([C@@H](C)CC)C(=O)N[C@@H](Cc2c[nH]c3ccccc23)C(=O)N1C [CycloA_D7] (cyclo(AFV[NMeL]IW[NMeE](NHPr)))
- Kd (ClpC1NTD): 26.8 µM
- MIC (mycobacterial cell): > 120 µM

Compound: H-Val-MeLeu-Ile-Trp(Boc)-MeLys(Boc)-Glu(TOTA-(-)JQ1)-Phe(3R-MeO)-OH
- ring closure, crude yield [2, 4]: 70%

Compound: CC[C@H](C)[C@@H]1NC(=O)[C@H](CC(C)C)N(C)C(=O)[C@H](C(C)C)NC(=O)[C@H](Cc2ccccc2)NC(=O)[C@H](C)NC(=O)[C@H](CCC(=O)O)N(C)C(=O)[C@H](Cc2c[nH]c3ccccc23)NC1=O [CycloA_D2] (cyclo(AFV[NMeL]IW[NMeE]))
- Kd (ClpC1NTD): 225 µM

Compound: C=CC(C)(C)n1cc(C[C@@H]2NC(=O)[C@H]([C@@H](C)CC)NC(=O)[C@H](CC(C)C)N(C)C(=O)[C@H](C(C)C)NC(=O)[C@H]([C@H](OC)c3ccccc3)NC(=O)[C@H](C)NC(=O)[C@H](CCCCN)N(C)C2=O)c2ccccc21 [CycloA_D11] (cyclo(A[Phe(βR-OMe)]V[NMeL]I[Trp(1-(1,1-Me2-allyl))][NMeK]))
- MIC (mycobacterial cell): 20 µM (≈ 19.7 µg/mL)

Compound: CC[C@H](C)[C@@H]1NC(=O)[C@H](CC(C)C)N(C)C(=O)[C@H](C(C)C)NC(=O)[C@H]([C@H](OC)c2ccccc2)NC(=O)[C@H](C)NC(=O)[C@H](CCCCNC(=O)OC(C)(C)C)N(C)C(=O)[C@H](Cc2cn(C(=O)OC(C)(C)C)c3ccccc23)NC1=O [H-Val-MeLeu-Ile-Trp(Boc)-MeLys(Boc)-Ala-Phe(3R-MeO)-OH]
- ring closure, crude yield ([2]; from H-Val-MeLeu-Ile-Trp(Boc)-MeLys(Boc)-Ala-Phe(3R-MeO)-OH, T3P/DIEA, DCM, 0.75 mM, 25.0 °C): 88%

Compound: CC[C@H](C)[C@@H]1NC(=O)[C@H](CC(C)C)N(C)C(=O)[C@H](C(C)C)NC(=O)[C@H](Cc2ccccc2)NC(=O)[C@H](C)NC(=O)[C@H](CCCNC(=O)OC(C)(C)C)N(C)C(=O)[C@H](Cc2cn(C(=O)OC(C)(C)C)c3ccccc23)NC1=O [H-Val-MeLeu-Ile-Trp(Boc)-MeOrn(Boc)-Ala-Phe-OH]
- ring closure, crude yield ([2]; from H-Val-MeLeu-Ile-Trp(Boc)-MeOrn(Boc)-Ala-Phe-OH, T3P/DIEA, DCM, 0.75 mM, 25.0 °C): 98%

Compound: CC[C@H](C)[C@@H]1NC(=O)[C@H](CC(C)C)N(C)C(=O)[C@H](C(C)C)NC(=O)[C@H](Cc2ccccc2)NC(=O)[C@H](C)NC(=O)[C@H](CCCCNC(=O)OC(C)(C)C)N(C)C(=O)[C@H](Cc2cn(C(=O)OC(C)(C)C)c3ccccc23)NC1=O [H-Val-MeLeu-Ile-Trp(Boc)-MeLys(Boc)-Ala-Phe-OH]
- ring closure, crude yield ([2]; from H-Val-MeLeu-Ile-Trp(Boc)-MeLys(Boc)-Ala-Phe-OH, T3P/DIEA, DCM, 0.75 mM, 25.0 °C): 75%

Compound: CC[C@H](C)[C@@H]1NC(=O)[C@H](CC(C)C)N(C)C(=O)[C@H](C(C)C)NC(=O)[C@H]([C@H](OC)c2ccccc2)NC(=O)[C@H](C)NC(=O)[C@H](CCCCN)N(C)C(=O)[C@H](Cc2c[nH]c3ccccc23)NC1=O [CycloA_D9] (cyclo(W[NMeK]A[Phe(βR-OMe)]V[NMeL]I))
- Kd (ClpC1NTD): 2.8 µM
- MIC (mycobacterial cell): 12 µM (≈ 11 µg/mL)

Compound: CC[C@H](C)[C@@H]1NC(=O)[C@H](CC(C)C)N(C)C(=O)[C@H](C(C)C)NC(=O)[C@H](Cc2ccccc2)NC(=O)[C@H](C)NC(=O)[C@H](CCCO)N(C)C(=O)[C@H](Cc2ccc(O)cc2)NC1=O [CycloA_D5b] (cyclo(V[NMeL]IY[X2]AF))
- Kd (ClpC1NTD): 326 µM

Compound: CC[C@H](C)[C@@H]1NC(=O)[C@H](CC(C)C)N(C)C(=O)[C@H](C(C)C)NC(=O)[C@H](Cc2ccccc2)NC(=O)[C@H](C)NC(=O)[C@H](CCCCN)N(C)C(=O)[C@H](Cc2c[nH]c3ccccc23)NC1=O [CycloA_D6] (cyclo(AFV[NMeL]IW[NMeK]))
- Kd (ClpC1NTD): 14.9 µM
- MIC (mycobacterial cell): 24 µM (≈ 21.3 µg/mL)
